{"source": "patent US5965088A", "about": "“Method for providing rapid disinfection of contact lenses” (priority 1997, dated 1999)", "key": {"[1]": {"tested_on": "Pseudomonas aeruginosa, Staphylococcus aureus, Serratia marcescens, Candida albicans, Fusarium solani", "assay": "Stand-Alone Procedure, secondary performance criteria (entrance into the regimen test)", "format": "cell-based, bacteria, yeast and mold", "settings": "for 10 minute entrance into the regimen: 10 min; for secondary performance criteria: 4.0 ppm, Example 12", "method": "This Example illustrates the microbiocidal efficacy of solutions according to the present invention. The antimicrobial efficacy of each of various compositions for the chemical disinfection of contact lenses was evaluated. Microbial challenge inoculums were prepared using Pseudomonas aeruginosa (ATCC 9027), Staphylococcus aureus (ATCC 6538), Serratia marcescens (ATCC 13880), Candida albicans (ATCC 10231), and Fusarium solani (ATCC 36031). The test organisms were cultured on appropriate agar and the cultures were harvested using sterile DPBST (Dulbecco's Phosphate Buffered Saline plus 0.05% w/v polysorbate 80) or a suitable diluent and transferred to a suitable vessel. Spore suspensions were filtered through sterile glass wool to remove hyphal fragments. Serratia marcescens, as appropriate, was filtered (eg., through a 1.2 μ filter) to clarify the suspension. After harvesting, the suspension was centrifuged at no more than 5000× g for a maximum of 30 minutes at 20-25° C. The supernatant was poured off and resuspended in DPBST or other suitable diluent. The suspension was centrifuged a second time, and resuspended in DPBST or other suitable diluent. All challenge bacterial and fungal cell suspensions were adjusted with DPBST or other suitable diluent to 1×10^7 -10^8 cfu/mL. The appropriate cell concentration may be estimated by measuring the turbidity of the suspension, for example using a spectrophotometer at a preselected wavelength, for example 490 nm. One tube was prepared containing a minimum of 10 mL of test solution per challenge organism. Each tube of the solution to be tested was inoculated with a suspension of the test organism sufficient to provide a final count of 1.0×10^5 -10^6 cfu/mL, the volume of the inoculum not exceeding 1% of the sample volume. Dispersion of the inoculum was ensured by vortexing the sample for at least 15 seconds. The inoculated product was stored at 10-25° C. Aliquots in the amount of 1.0 mL were taken of the inoculated product for determination of viable counts after certain time periods of disinfection. […] The viable count of organisms was determined in appropriate dilutions by preparation of triplicate plates of trypticase soy (TSA) agar for bacteria and Sabouraud dextrose agar (SDA) for mold and yeast. […] The average number of colony forming units was determined on countable plates. […] The microbial reduction was then calculated at the specified time points. […]\nThe solutions were evaluated based on the performance requirement referred to as the \"Stand-Alone Procedure for Disinfecting Products\" (hereafter the \"stand-alone test\") and is based on the Disinfection Efficacy Testing for contact lens care products under the Draft Premarket Notification (510(k)) Guidance Document For Contact Lens Care Products dated Apr. […]"}, "[2]": {"tested_on": "Fusarium solani (ATCC 36031)", "assay": "Antimicrobial efficacy (stand-alone log reduction), F. solani", "format": "cell-based", "settings": "for log reduction at 4 µg/mL: 4.0 ppm alexidine in ReNu MPS", "method": "(§1) This Example illustrates the microbiocidal efficacy of solutions according to the present invention. The antimicrobial efficacy of each of various compositions for the chemical disinfection of contact lenses was evaluated. Microbial challenge inoculums were prepared using Pseudomonas aeruginosa (ATCC 9027), Staphylococcus aureus (ATCC 6538), Serratia marcescens (ATCC 13880), Candida albicans (ATCC 10231), and Fusarium solani (ATCC 36031). The test organisms were cultured on appropriate agar and the cultures were harvested using sterile DPBST (Dulbecco's Phosphate Buffered Saline plus 0.05% w/v polysorbate 80) or a suitable diluent and transferred to a suitable vessel. Spore suspensions were filtered through sterile glass wool to remove hyphal fragments. Serratia marcescens, as appropriate, was filtered (eg., through a 1.2 μ filter) to clarify the suspension. After harvesting, the suspension was centrifuged at no more than 5000× g for a maximum of 30 minutes at 20-25° C. The supernatant was poured off and resuspended in DPBST or other suitable diluent. The suspension was centrifuged a second time, and resuspended in DPBST or other suitable diluent. All challenge bacterial and fungal cell suspensions were adjusted with DPBST or other suitable diluent to 1×10^7 -10^8 cfu/mL. The appropriate cell concentration may be estimated by measuring the turbidity of the suspension, for example using a spectrophotometer at a preselected wavelength, for example 490 nm. One tube was prepared containing a minimum of 10 mL of test solution per challenge organism. Each tube of the solution to be tested was inoculated with a suspension of the test organism sufficient to provide a final count of 1.0×10^5 -10^6 cfu/mL, the volume of the inoculum not exceeding 1% of the sample volume. Dispersion of the inoculum was ensured by vortexing the sample for at least 15 seconds. The inoculated product was stored at 10-25° C. Aliquots in the amount of 1.0 mL were taken of the inoculated product for determination of viable counts after certain time periods of disinfection. The time points for the bacteria were 25, 50, 75, and 100% of the minimum disinfection time. Yeast and mold were tested at an additional timepoint of at least 400% of the minimum disinfection time. The suspension was mixed well by vortexing vigorously for at least 5 second. The 1.0 mL aliquots removed at the specified time intervals were subjected to a suitable series of decimal dilutions in validated neutralizing media. The suspensions were mixed vigorously and incubated for a suitable period of time to allow for neutralization of the microbial agent. The viable count of organisms was determined in appropriate dilutions by preparation of triplicate plates of trypticase soy (TSA) agar for bacteria and Sabouraud dextrose agar (SDA) for mold and yeast. The bacterial recovery plates were incubated at 30-35° C. for 2-4 days. The yeast was incubated at 20-30° C. for 2-4 days and mold recovery plates at 20-25° C. for 3-7 days. The average number of colony forming units was determined on countable plates. Countable plates refer to 30-300 cfu/plates for bacteria and yeast, and 8 to 80 cfu/plate for mold except when colonies are observed only for the 10^0 or 10^-1 dilution plates. The microbial reduction was then calculated at the specified time points. […] Following inoculation in a validated neutralizing broth and incubation for an appropriate period of time, the inoculum control must be between 1.0×10^5 -1.0×10^6 cfu/mL\n(§2) The solutions were evaluated based on the performance requirement referred to as the \"Stand-Alone Procedure for Disinfecting Products\" (hereafter the \"stand-alone test\") and is based on the Disinfection Efficacy Testing for contact lens care products under the Draft Premarket Notification (510(k)) Guidance Document For Contact Lens Care Products dated Apr. 1, 1996, prepared by the U.S. Food and Drug Administration, Division of Ophthalmic Devices. […]"}, "[3]": {"tested_on": "Pseudomonas aeruginosa, Staphylococcus aureus, Serratia marcescens, Candida albicans, Fusarium solani", "assay": "Stand-Alone Procedure for Disinfecting Products, primary performance criteria", "format": "cell-based, bacteria, yeast and mold", "settings": "for one hour stand-alone test for bacteria: 1 hr, bacteria only", "method": "as §1, §2"}}, "data": [{"smiles": "CCCCC(CC)CNC(=N)NC(=N)NCCCCCCNC(=N)NC(=N)NCC(CC)CCCC.Cl.Cl", "note": "(stereo not drawn) [Alexidine.2HCl, 1,1 '-hexamethylenebis(5-(2-ethylhexyl)-biguanide) dihydrochloride]", "values": [{"measurement": "10 minute entrance into the regimen", "setting": "[1]; 1.0 ppm", "result": "does not pass the 10 minute entrance into the regimen"}, {"measurement": "10 minute entrance into the regimen", "setting": "[1]; 2.0 ppm", "result": "passes the 10 minute entrance into the regimen"}, {"measurement": "secondary performance criteria", "setting": "[1]; soak 2.5 min", "result": "failed in all cases"}, {"measurement": "secondary performance criteria", "setting": "[1]; soak 10 min", "result": "met in all cases"}, {"measurement": "log reduction at 4 ppm", "setting": "[2]; ATCC36031, 2.5 min, aged 18 months, Exp. 1, 2.5 min", "result": 2.5}, {"measurement": "log reduction at 4 ppm", "setting": "[2]; ATCC36031, 2.5 min, aged 18 months, Exp. 2, 2.5 min", "result": 2.5}, {"measurement": "log reduction at 4 ppm", "setting": "[2]; ATCC36031, 2.5 min, aged 18 months, Exp. 3, 2.5 min", "result": 2.2}, {"measurement": "log reduction at 4 ppm", "setting": "[2]; ATCC36031, 5 min, aged 18 months, Exp. 1, 5.0 min", "result": 4.3}, {"measurement": "log reduction at 4 ppm", "setting": "[2]; ATCC36031, 5 min, aged 18 months, Exp. 2, 5.0 min", "result": 4.1}, {"measurement": "log reduction at 4 ppm", "setting": "[2]; ATCC36031, 5 min, aged 18 months, Exp. 3, 5.0 min", "result": 2.1}, {"measurement": "log reduction at 4 ppm", "setting": "[2]; ATCC36031, 0.125 h, aged 18 months, Exp. 1, 7.5 min", "result": 4.6}, {"measurement": "log reduction at 4 ppm", "setting": "[2]; ATCC36031, 0.125 h, aged 18 months, Exp. 2, 7.5 min", "result": 4.4}, {"measurement": "log reduction at 4 ppm", "setting": "[2]; ATCC36031, 0.125 h, aged 18 months, Exp. 3, 7.5 min", "result": 2.4}, {"measurement": "log reduction at 4 ppm", "setting": "[2]; ATCC36031, 10 min, aged 18 months, Exp. 1, 10.0 min", "result": "> 4.6"}, {"measurement": "log reduction at 4 ppm", "setting": "[2]; ATCC36031, 10 min, aged 18 months, Exp. 2, 10.0 min", "result": 4.5}, {"measurement": "log reduction at 4 ppm", "setting": "[2]; ATCC36031, 10 min, aged 18 months, Exp. 3, 10.0 min", "result": 2.5}, {"measurement": "log reduction at 4 ppm", "setting": "[2]; ATCC36031, 0.25 h, Ex. 6, aged 19 months at 25 °C, 15 min", "result": 3.4}, {"measurement": "log reduction at 4 ppm", "setting": "[2]; ATCC36031, 0.25 h, Ex. 7, different lot aged 18 months, 15 min", "result": 2.4}, {"measurement": "log reduction at 4 ppm", "setting": "[2]; ATCC36031, 0.25 h, Ex. 8, different batch aged 19 months at 25 °C, 15 min", "result": 3.6}, {"measurement": "log reduction at 4 ppm", "setting": "[2]; ATCC36031, 0.5 h, Ex. 6, aged 19 months at 25 °C, 30 min", "result": 4.3}, {"measurement": "log reduction at 4 ppm", "setting": "[2]; ATCC36031, 0.5 h, Ex. 7, different lot aged 18 months, 30 min", "result": "> 4.5"}, {"measurement": "log reduction at 4 ppm", "setting": "[2]; ATCC36031, 0.5 h, Ex. 8, different batch aged 19 months at 25 °C, 30 min", "result": "> 4.6"}, {"measurement": "log reduction at 4 ppm", "setting": "[2]; ATCC36031, 40 min, aged 18 months, Exp. 1, 40.0 min", "result": "> 4.6"}, {"measurement": "log reduction at 4 ppm", "setting": "[2]; ATCC36031, 40 min, aged 18 months, Exp. 2, 40.0 min", "result": "> 4.5"}, {"measurement": "log reduction at 4 ppm", "setting": "[2]; ATCC36031, 40 min, aged 18 months, Exp. 3, 40.0 min", "result": "> 4.6"}, {"measurement": "log reduction at 4 ppm", "setting": "[2]; ATCC36031, 0.75 h, Ex. 6, aged 19 months at 25 °C, 45 min", "result": 4.4}, {"measurement": "log reduction at 4 ppm", "setting": "[2]; ATCC36031, 0.75 h, Ex. 7, different lot aged 18 months, 45 min", "result": "> 4.5"}, {"measurement": "log reduction at 4 ppm", "setting": "[2]; ATCC36031, 0.75 h, Ex. 8, different batch aged 19 months at 25 °C, 45 min", "result": "> 4.6"}, {"measurement": "log reduction at 4 µg/mL", "setting": "[2]; ATCC36031, 1 h, 1 hr", "result": 3.1}, {"measurement": "log reduction at 4 ppm", "setting": "[2]; ATCC36031, 1 h, Ex. 6, aged 19 months at 25 °C, 60 min", "result": 4.2}, {"measurement": "log reduction at 4 ppm", "setting": "[2]; ATCC36031, 1 h, Ex. 7, different lot aged 18 months, 60 min", "result": "> 4.5"}, {"measurement": "log reduction at 4 ppm", "setting": "[2]; ATCC36031, 1 h, Ex. 8, different batch aged 19 months at 25 °C, 60 min", "result": "> 4.6"}, {"measurement": "log reduction at 4 µg/mL", "setting": "[2]; ATCC36031, 2 h, 2 hr", "result": 4.1}, {"measurement": "log reduction at 4 µg/mL", "setting": "[2]; ATCC36031, 3 h, 3 hr", "result": 4.5}, {"measurement": "log reduction at 4 µg/mL", "setting": "[2]; ATCC36031, 4 h, 4 hr", "result": 4.6}, {"measurement": "log reduction at 4 ppm", "setting": "[2]; ATCC36031, 4 h, Ex. 6, aged 19 months at 25 °C, 4 h", "result": "> 4.4"}, {"measurement": "log reduction at 4 ppm", "setting": "[2]; ATCC36031, 4 h, Ex. 7, different lot aged 18 months, 4 hrs", "result": "> 4.5"}, {"measurement": "log reduction at 4 ppm", "setting": "[2]; ATCC36031, 4 h, Ex. 8, different batch aged 19 months at 25 °C, 4 hrs", "result": "> 4.6"}, {"measurement": "log reduction at 4 µg/mL", "setting": "[2]; ATCC36031, 24 h, 24 hr", "result": "> 4.6"}, {"measurement": "one hour stand-alone test for bacteria", "setting": "[3]; 1.0 ppm", "result": "will not pass the one hour stand-alone test for bacteria"}, {"measurement": "one hour stand-alone test for bacteria", "setting": "[3]; 2.0 ppm", "result": "passes the one hour stand-alone test for bacteria"}, {"measurement": "one hour stand-alone test", "setting": "[3]; 4.0 ppm alexidine in ReNu MPS", "result": "passed the one hour stand-alone test"}, {"measurement": "stand-alone test", "setting": "[3]; 4.0 ppm, Example 6, 30, 45, 60 min, no rub or rinse", "result": "able to pass a stand-alone test (with no rub or rinse) at the 30 minute time point, 45 time point and the 60 minute time point"}, {"measurement": "stand-alone test", "setting": "[3]; 4.0 ppm, Example 7, 30, 45, 60 min", "result": "passed the stand alone test at 30 minutes, 45 minutes, and 60 minutes"}, {"measurement": "stand-alone test", "setting": "[3]; 4.0 ppm, Example 7, 15 min, with respect to Serratia marcescens and Candida albicans", "result": "only just passed the 15 minute stand-alone test"}, {"measurement": "stand-alone test", "setting": "[3]; 4.0 ppm, Example 8, 30, 45, 60 min, without rubbing", "result": "passed the stand-alone test (without rubbing) at 30 minutes, 45 minutes, and 60 minutes"}, {"measurement": "stand-alone test", "setting": "[3]; 4.0 ppm, Example 8, 15 min, without rubbing", "result": "did not pass the test at 15 minutes"}, {"measurement": "time required to pass a stand-alone procedure without rubbing", "setting": "[3]; 4.0 ppm, Tables 3, 4 and 5", "result": "at least 30 minutes"}]}]}
